Results published in ChEMBL document CHEMBL1154643, “Biaryl purine derivatives as potent antiproliferative agents: inhibitors of cyclin dependent kinases. Part I” (Bioorg Med Chem Lett, 2009).

Tests used:
[1] = target: Cyclin-dependent kinase 2/cyclin A (Homo sapiens, UniProt P24941); assay: Inhibition of recombinant CDK2/cyclin A; format: protein-complex assay
[2] = target: Cyclin-dependent kinase 2/cyclin E (Homo sapiens, UniProt P24941); assay: Inhibition of recombinant CDK2/cyclin E; format: protein-complex assay
[3] = Antiproliferative activity against human HeLaS3 cells by sulforhodamine B assay; format: functional; conditions: HeLa S3

| SMILES | IC50 [1] [nM] | IC50 [2] [nM] | GI50 [3] [µM] |
| --- | --- | --- | --- |
| Cn1cnc2c(NCc3ccc(-c4ccccc4)cc3)nc(N[C@H]3CC[C@H](N)CC3)nc21 | 1000 | 800 | – |
| Cn1cnc2c(NCc3ccccc3)nc(NCCO)nc21 [OLOMOUCINE] | – | – | 65 |
| CC(C)n1cnc2c(NCc3ccc(-c4ccccc4)cc3)nc(N[C@H]3CC[C@H](O)CC3)nc21 | 400 | 400 | – |
| CC(C)n1cnc2c(NCc3ccc(-c4ccccc4)cc3)nc(N[C@H]3CC[C@H](NC(=O)CC4CC4)CC3)nc21 | 600 | 300 | – |
| CC[C@H](CO)Nc1nc(NCc2ccc(-c3ccccc3)cc2)c2ncn(C(C)C)c2n1 | – | – | 0.4 |
| CCCN[C@H]1CC[C@H](Nc2nc(NCc3ccc(-c4ccccc4)cc3)c3ncn(C(C)C)c3n2)CC1 | 500 | 400 | – |
| CC(C)n1cnc2c(NCc3ccc(-c4cccc(Cl)c4)cc3)nc(N[C@H]3CC[C@H](N)CC3)nc21 | 400 | 400 | – |
| CC(C)n1cnc2c(NCc3ccc(-c4ccccc4)cc3)nc(NC3CCCC(N)C3)nc21 (centres undefined) | 1000 | 900 | – |
| Cc1ccc(-c2ccc(CNc3nc(N[C@H]4CC[C@H](N)CC4)nc4c3ncn4C(C)C)cc2)cc1 | 400 | 200 | – |
| N[C@H]1CC[C@H](Nc2nc(NCc3ccc(-c4ccccc4)cc3)c3ncn(C4CCCC4)c3n2)CC1 | 100 | 90 | – |
| CC(C)n1cnc2c(NCc3ccc(-c4ccccc4)cc3)nc(NCC3CCNCC3)nc21 | 4000 | 2500 | – |
| CC(C)n1cnc2c(NCc3ccc(-c4ccccc4)cc3)nc(N[C@H]3CC[C@H](NS(=O)(=O)C(F)(F)F)CC3)nc21 | > 5000 | > 5000 | – |
| CC(C)n1cnc2c(NCc3ccc(-c4ccccc4)cc3)nc(N3CCC(N)C3)nc21 (centres undefined) | 3000 | 3000 | – |
| CC(C)n1cnc2c(NCc3ccc(-c4ccccc4)cc3)nc(N[C@H]3CC[C@H](NCC4CC4)CC3)nc21 | 900 | 300 | – |
| CC(C)n1cnc2c(NCc3ccc(-c4ccccc4)cc3)nc(NC[C@H](C)N)nc21 | 2000 | 900 | – |
| CCCCN[C@H]1CC[C@H](Nc2nc(NCc3ccc(-c4ccccc4)cc3)c3ncn(C(C)C)c3n2)CC1 | 1000 | 300 | – |
| CC(C)n1cnc2c(NCc3ccc(-c4ccccc4Cl)cc3)nc(N[C@H]3CC[C@H](N)CC3)nc21 | 1000 | 600 | – |
| CC(C)n1cnc2c(NCc3ccc(-c4ccccc4)cc3)nc(NCCN)nc21 | 600 | 500 | – |
| CC(C)n1cnc2c(NCc3ccc(-c4ccccc4)cc3)nc(N3CCC(C(N)=O)CC3)nc21 | > 5000 | > 5000 | – |

| SMILES | IC50 [1] [nM] | IC50 [2] [nM] | GI50 [3] [µM] |
| --- | --- | --- | --- |
| CC(C)n1cnc2c(NCc3ccc(-c4ccccc4)cc3)nc(N3CCC(CN)CC3)nc21 | 4000 | 1000 | – |
| CC(C)n1cnc2c(NCc3ccc(-c4ccccc4)cc3)nc(NC3(CO)CCCC3)nc21 | 2000 | 600 | – |
| CC(C)n1cnc2c(NCc3ccc(-c4ccccc4)cc3)nc(NCCCN)nc21 | 3000 | 400 | – |
| CC(C)n1cnc2c(NCc3ccc(-c4ccccc4)cc3)nc(NC[C@H](C)NC(=O)OC(C)(C)C)nc21 | 1000 | 800 | – |
| CC[C@H](CO)Nc1nc(NCc2ccccc2)c2ncn(C(C)C)c2n1 [SELICICLIB] | – | – | 20 |
| CC(Nc1nc(N[C@H]2CC[C@H](N)CC2)nc2c1ncn2C(C)C)c1ccc(-c2ccccc2)cc1 (some centres undefined) | 5000 | 4000 | – |
| CC(C)n1cnc2c(NCc3ccc(-c4ccccc4)cc3)nc(N[C@H]3CC[C@H](NS(C)(=O)=O)CC3)nc21 | 500 | 200 | – |
| CC(C)n1cnc2c(NCCc3ccc(-c4ccccc4)cc3)nc(N[C@H]3CC[C@H](N)CC3)nc21 | 1000 | 800 | 5 |
| CC(C)n1cnc2c(NCc3ccc(-c4ccccc4)cc3)nc(NCCCCN)nc21 | 3000 | 3000 | – |
| CC(C)n1cnc2c(NCc3ccc(-c4ccccc4)cc3)nc(N[C@@H]3CCCC[C@H]3N)nc21 | 2000 | 900 | – |
| CCN(CC)[C@H]1CC[C@H](Nc2nc(NCc3ccc(-c4ccccc4)cc3)c3ncn(C(C)C)c3n2)CC1 | 6000 | 3000 | – |
| COc1cccc(-c2ccc(CNc3nc(N[C@H]4CC[C@H](N)CC4)nc4c3ncn4C(C)C)cc2)c1 | 350 | 150 | – |
| Cc1cc(C)cc(-c2ccc(CNc3nc(N[C@H]4CC[C@H](N)CC4)nc4c3ncn4C(C)C)cc2)c1 | 400 | 200 | – |
| CC(C)n1cnc2c(NCc3ccc(-c4ccccc4)cc3)nc(N[C@@H]3CCCC[C@@H]3N)nc21 | 900 | 400 | – |
| CC(=O)N[C@H]1CC[C@H](Nc2nc(NCc3ccc(-c4ccccc4)cc3)c3ncn(C(C)C)c3n2)CC1 | 500 | 300 | – |
| CCC(=O)N[C@H]1CC[C@H](Nc2nc(NCc3ccc(-c4ccccc4)cc3)c3ncn(C(C)C)c3n2)CC1 | 500 | 200 | – |
| Cc1cccc(-c2ccc(CNc3nc(N[C@H]4CC[C@H](N)CC4)nc4c3ncn4C(C)C)cc2)c1 | 300 | 200 | – |
| CCN[C@H]1CC[C@H](Nc2nc(NCc3ccc(-c4ccccc4)cc3)c3ncn(C(C)C)c3n2)CC1 | 3000 | 1000 | – |
| Cc1ccc(-c2ccc(CNc3nc(N[C@H]4CC[C@H](N)CC4)nc4c3ncn4C(C)C)cc2)cc1C | 500 | 250 | – |
